The values below come from patent US4708966A, “Novel anti-inflammatory agents, pharmaceutical compositions and methods for reducing inflammation” (The Procter & Gamble Company, priority 1986, dated 1987).

For test [1], the system named is carrageenan rat paw edema. In words: Carrageenan Rat Paw Edema Test. Format: in vivo, Male Sprague-Dawley rats. To be noted: for ED35: 4 h, oral, by regression analysis, read-out: ID35; for inhibition in vivo at 100 mg/kg: po, 100 mg/kg P.O., paw volume 4 h after carrageenan, vs control group, read-out: Percent Inhibiton at 100 mg/kg dose P.O. On the procedure:
Carrageenan Rat Paw Edema Test
Male Sprague-Dawley rats (Charles River Laboratories) are weighed and food fasted overnight. The animals are then divided into four to six groups of six animals each according to body weights (average about 145 g) so that each group has about the same average body weight (within 10 g).
The following morning animals are dosed with the test compound and then placed in individual cages. For oral dosing, the drug is suspended in 0.5% methyl cellulose with 2% Tween 80, and delivered via stomach tube in a 5 ml volume.
Paw volumes (0 time) are determined on both hind paws with a mercury displacement device equipped with a transducer and digitizer. One hour after dosing the test compound, the animals are placed in a plastic restrainer and 50 ul of a 1% (w/w) carrageenan solution in 0.9% saline is injected into the ventral surface of the left rear paw. Four hours after the carrageenan injection, the paw volumes are again determined.
The results are expressed as percent inhibition of the mean paw volume of the test group relative to the control group. Statistical differences are determined by one way analysis of variance. ID35 values are determined by regression analysis.

The test system of test [2] is oxazolone-induced inflamed mouse ear. As to the kind of experiment: Oxazolone-Induced Inflamed Mouse Ear Test (Ox-IMET). It is filed as in vivo, Adult male Cox ICR mice. To be noted: topical, 25 ul of 10% in ethanol, 24 h after challenge, vs control group, read-out: Percent Inhibition. On the procedure:
Oxazolone-Induced Inflamed Mouse Ear Test ("Ox-IMET")
Adult male Cox ICR mice, 25-35 g, are sensitized by applying 3% oxazolone in olive oil to the clipped abdomen of each animal using a cotton swab. One week later, the mice are challenged on the inner surface of the left ear with 3% oxazolone in aceotone. At the same time 25 ul of the test compound (10% in ethanol) is applied to the outer surface of the same ear. Twenty four hours after the challenge, the animals are sacrificed by cervical dislocation and both ears are removed. A 5 mm punch biopsy is removed from both ears and is weighed to the nearest 0.1 mg on a Cahn electrobalance. Ten animals are used per group. The study usually consists of 4 to 6 groups, of which one is a control group which is challenged on the left ear, but is not treated with a test compound. The results are expressed as percent inhibition of the swelling response compared to the control group. Statistical tests for significance between groups are made using a one way analysis of variance of the ear weight differences.

In test [3] the test system is arachidonic acid-induced inflamed mouse ear. In words: Arachidonic Acid-Induced Inflamed Mouse Ear Test. Format: in vivo, Adult male Cox ICR mice. The settings on record: for inhibition in vivo at 50 µg/ear: Mus musculus, 50 ug/ear topical, 3 hours, read-out: Percent Inhibition at 50 ug/ear topical dose; for ID50: topical, by regression analysis. How it is done: Arachidonic Acid-Induced Inflamed Mouse Ear Test
All drugs are dissolved with arachidonic acid in the vehicle. At the end of 3 hours, animals are sacrificed by cervical dislocation and both ears are removed. A 5 mm punch biopsy is removed from both ears and is weighed to the nearest 0.1 mg on a Cahn electrobalance. Ten animals are used per group. The study usually consists of 4 to 6 groups, of which one is a control group which is treated on the left ear with only arachidonic acid in the vehicle. The results are expressed as percent inhibition of the swelling response compared to the control group. Statistical tests for significance between groups are made using a one way analysis of variance of the ear weight differences. ID50 values are determined by regression analysis.

In the case of `C#CC(=O)c1cc(C(C)(C)C)c(O)c(C(C)(C)C)c1` [Compound 1, 4-propynoyl-2,6-di-t-butylphenol], in test [1], the ED35 was determined as 40 mg/kg and the inhibition in vivo at 100 mg/kg was 65%.
Regarding `C#CC(O)c1cc(C(C)(C)C)c(O)c(C(C)(C)C)c1` (stereo not drawn) [Compound 2, 4-(1'-hydroxy-2'-propynyl)-2,6-di-t-butylphenol], in test [1], the ED35 is 46.8 mg/kg and the inhibition in vivo at 100 mg/kg stood at 75.6%. Moreover, in test [2], the inhibition in vivo at 10 % came to 27.3%.
On to `C#CCC(=O)c1cc(C(C)(C)C)c(O)c(C(C)(C)C)c1` [Compound 3, 4-(3'-butynoyl)-2,6-di-t-butylphenol], for which, in test [1], the ED35 was determined as 9.9 mg/kg and the inhibition in vivo at 100 mg/kg is 66.9%. Further, in test [3], the inhibition in vivo at 50 µg/ear stood at 61.6% and the ID50 was found to be 22.7 ug/ear.
As for `C=C=CC(=O)c1cc(C(C)(C)C)c(O)c(C(C)(C)C)c1` [Compound 4, 4-butadienoyl-2,6-di-t-butylphenol], the inhibition in vivo at 100 mg/kg in test [1] came out at 64.9%. For the same compound, in test [3], the inhibition in vivo at 50 µg/ear stood at 79.6% and the ID50 was 6.6 ug/ear.
In the case of `C#CCCC(=O)c1cc(C(C)(C)C)c(O)c(C(C)(C)C)c1` [Compound 5, 4-(4'-pentynoyl)-2,6-di-t-butylphenol], in test [1], the ED35 worked out at 8.1 mg/kg and the inhibition in vivo at 100 mg/kg was 61.3%. In addition, the inhibition in vivo at 10 % in test [2] was 25.3%.
The like results for `C=CCCC(=O)c1cc(C(C)(C)C)c(O)c(C(C)(C)C)c1` [Compound 6, 4-(4'-pentenoyl)-2,6-di-t-butylphenol] were, in that order, 3.3 mg/kg, 71.2% and 46%.
`C#CCC(C(=O)c1cc(C(C)(C)C)c(O)c(C(C)(C)C)c1)C(OC)OC` (stereo not drawn) [Compound 7, 4-(2'-dimethoxymethyl-4'-pentynoyl)-2,6-di-t-butylphenol]: the inhibition in vivo at 100 mg/kg in test [1] was found to be 53.6%. The inhibition in vivo at 10 % in test [2] was determined as 40.9%.
In the same order, the values of `C#CCC(C)(C)C(=O)c1cc(C(C)(C)C)c(O)c(C(C)(C)C)c1` [Compound 8, 4-(2', 2'-dimethyl-4'-pentynoyl)-2,6-di-t-butylphenol] are 50.4% and 38.3%.
The like results for `C#CC(C)(C)CC(=O)c1cc(C(C)(C)C)c(O)c(C(C)(C)C)c1` [Compound 9, 4-(3',3'-dimethyl-4'-pentynoyl)-2,6-di-t-butylphenol] were, in that order, 41.7% and 23.2%.
For `C#CC(=O)CCc1cc(C(C)(C)C)c(O)c(C(C)(C)C)c1` [Compound 10, 4-(4'-pentyn-3'-one)-2,6-di-t-butylphenol], in test [1], the ED35 stood at 24.5 mg/kg and the inhibition in vivo at 100 mg/kg was determined as 92.2%. Moreover, the inhibition in vivo at 50 µg/ear in test [3] was found to be 64.9%.
In the case of `C=CCCCC(=O)c1cc(C(C)(C)C)c(O)c(C(C)(C)C)c1` [Compound 12, 4-(5'-hexenoyl)-2,6-di-t-butylphenol], in test [1], the ED35 came to 11.4 mg/kg and the inhibition in vivo at 100 mg/kg came out at 59.9%. The inhibition in vivo at 10 % in test [2] is 29.7%.
With `C#CCCCC(O)c1cc(C(C)(C)C)c(O)c(C(C)(C)C)c1` (stereo not drawn) [Compound 14, 4-(1'-hydroxy-5'-hexynyl)-2,6-di-t-butylphenol], in test [1], the ED35 was determined as 30 mg/kg and the inhibition in vivo at 100 mg/kg was found to be 54.4%.
For `C#CCCCCc1cc(C(C)(C)C)c(O)c(C(C)(C)C)c1` [Compound 15, 4-(5'-hexynyl)-2,6-di-t-butylphenol], in test [1], the ED35 is 55.2 mg/kg and the inhibition in vivo at 100 mg/kg was found to be 75.7%. The inhibition in vivo at 10 % in test [2] is 39.6%.
Take `C#CCCCC(=C)c1cc(C(C)(C)C)c(O)c(C(C)(C)C)c1` [Compound 16, 4-(1'-methylidene-5'-hexynyl)-2,6-di-t-butylphenol]: in test [1], the inhibition in vivo at 100 mg/kg came to 25.7%. In addition, the inhibition in vivo at 10 % in test [2] turned out to be 30.3%.
In the case of `C#CC[C@H](C)CC(=O)c1cc(C(C)(C)C)c(O)c(C(C)(C)C)c1` [Compound 17, 4-((S)-(-)-3'-methyl-5'-hexynoyl)-2,6-di-t-butylphenol], in test [1], the ED35 is 4.4 mg/kg and the inhibition in vivo at 100 mg/kg was 75.5%. In addition, the inhibition in vivo at 10 % in test [2] was 59.5%.
In the same order, the values of `C#CC[C@@H](C)CC(=O)c1cc(C(C)(C)C)c(O)c(C(C)(C)C)c1` [Compound 18, 4-((R)-(+)-3'-methyl-5'-hexynoyl)-2,6-di-t-butylphenol] are 2.5 mg/kg, 72% and 54.5%.
As to `C#CCCCC(=O)c1cc(C(C)(C)C)cc(C(C)(C)C)c1` [Compound 19, 1-(5'-hexynoyl)-3,5-di-t-butylbenzene], in test [1], the ED35 was 45.3 mg/kg and the inhibition in vivo at 100 mg/kg was 71.7%.
As to `C#CCCCC(=O)c1cc([Si](C)(C)C)c(O)c([Si](C)(C)C)c1` [Compound 20, 4-(5'-hexynoyl)-2,6-bis-trimethylsilylphenol], in test [1], the ED35 was 34.2 mg/kg and the inhibition in vivo at 100 mg/kg was 73.1%.
The like results for `C#CCCCC(=O)c1cc([Si](C)(C)C)cc([Si](C)(C)C)c1` [Compound 21, 1-(5'-hexynoyl)-3,5-bis-trimethylsilylbenzene] were, in that order, roughly 90 mg/kg and 41.7%.
For `C#CCCCC(=O)c1cc(C(F)(F)F)cc(C(F)(F)F)c1` [Compound 22, 1-(5'-hexynoyl)-3,5-bis(trifluoromethyl)benzene], the inhibition in vivo at 100 mg/kg in test [1] was found to be 47%.
Regarding `C#CCCCCC(=O)c1cc(C(C)(C)C)c(O)c(C(C)(C)C)c1` [Compound 23, 4-(6'-heptynoyl)-2,6-di-t-butylphenol], in test [1], the ED35 stood at 17.4 mg/kg and the inhibition in vivo at 100 mg/kg stood at 67.9%.
For `C#CCCC(=O)CCc1cc(C(C)(C)C)c(O)c(C(C)(C)C)c1` [Compound 24, 4-(6'-heptyn-3'-one)-2,6-di-t-butylphenol], the inhibition in vivo at 10 % in test [2] was determined as 38.2%.
The same measure, in the same setting: with `C#CCC(CC#C)C(=O)CCc1cc(C(C)(C)C)c(O)c(C(C)(C)C)c1` [Compound 25, 4-(4'-(2"-propynyl)-6'-heptyn-3'-one)-2,6-di-t-butylphenol] the figure was 40.4%.
For `C#CCCCCCC(=O)c1cc(C(C)(C)C)c(O)c(C(C)(C)C)c1` [Compound 26, 4-(7'-octynoyl)-2,6-di-t-butylphenol], in test [1], the ED35 was 110 mg/kg and the inhibition in vivo at 100 mg/kg was found to be 43.3%.
In the case of `C=CCCC(=O)/C=C/c1cc(C(C)(C)C)c(O)c(C(C)(C)C)c1` [Compound 28, 4-((E)-1',6'-heptadiene-3'-one)-2,6-di-t-butylphenol], the inhibition in vivo at 10 % in test [2] was 37.4%.
For `COC(CC(=O)c1cc(C(C)(C)C)c(O)c(C(C)(C)C)c1)OC` [Compound 29, 4-(3',3'-dimethoxypropionyl)-2,6-di-t-butylphenol], in test [1], the ED35 was found to be 28.2 mg/kg and the inhibition in vivo at 100 mg/kg was 70.7%.
For `CCOC(CC(=O)c1cc(C(C)(C)C)c(O)c(C(C)(C)C)c1)OCC` [Compound 31, 4-(3',3'-diethoxypropionyl)-2,6-di-t-butylphenol], in test [3], the inhibition in vivo at 50 µg/ear came to 82.8% and the ID50 amounted to 15.3 ug/ear.
As to `CC(C)(C)c1cc(C(=O)CC2OCCS2)cc(C(C)(C)C)c1O` (stereo not drawn) [Compound 32, 4-(2'-(1",3"-oxathiolane)acetyl)-2,6-di-t-butylphenol], in test [1], the inhibition in vivo at 100 mg/kg was found to be 50.8%. The inhibition in vivo at 10 % in test [2] worked out at 44.5%.
Consider `COC(Cc1cc(C(C)(C)C)c(O)c(C(C)(C)C)c1)OC` [Compound 33, 4-(2',2'-dimethoxyethyl)-2,6-di-t-butylphenol], for which, in test [2], the inhibition in vivo at 10 % was found to be 54.1%.
With `COC(CC(=O)CCc1cc(C(C)(C)C)c(O)c(C(C)(C)C)c1)OC` [Compound 34, 4-(5',5'-dimethoxy-3'-pentanone)-2,6-di-t-butylphenol], the inhibition in vivo at 100 mg/kg in test [1] amounted to 66.1%.
Same read-out and setting: with `C#CCC(C)(C)CC(=O)c1cc(C(C)(C)C)c(O)c(C(C)(C)C)c1` [Compound 35, 4-(3',3'-dimethyl-5'-hexynoyl)-2,6-di-t-butylphenol] the figure was 61.1%.
